In ChEMBL document CHEMBL4118122, “Identification and biological evaluation of thiazole-based inverse agonists of RORγt” (Bioorg Med Chem Lett, 2018):

What was measured:
[1] = molecular target: Aurora kinase A (Homo sapiens) (UniProt O14965); assay: Inhibition of recombinant full length His-tagged human Aurora A expressed in baculovirus expression system at 10 uM in presence of ATP relative to control
[2] = molecular target: Neuropeptide Y receptor type 2 (Homo sapiens) (UniProt P49146); assay: Displacement of [125I]peptide YY from human Y2 receptor at 10 uM after 120 mins by scintillation counting analysis relative to control
[3] = molecular target: Adenosine receptor A1 (Homo sapiens) (UniProt P30542); assay: Displacement of [3H]-DPCPX from human recombinant adenosine A1 receptor at 1 uM after 60 mins by scintillation counting analysis relative to control
Nociceptin receptor = Nociceptin receptor (Homo sapiens, UniProt P41146); assay: Displacement of [3H]nociceptin from human recombinant NOP receptor at 10 uM after 60 mins by scintillation counting analysis relative to control
[4] = Thermodynamic solubility of the compound in fasted state simulated intestinal […] after 2 to 5 days by UV-HPLC analysis; assay type: physicochemical; conditions: read-out: Therm_solubility
[5] = molecular target: 5-hydroxytryptamine receptor 2B (Homo sapiens, UniProt P41595); assay: Displacement of [125I]+/-DOI from human recombinant 5-HT2B receptor at 1 uM after 60 mins by scintillation counting analysis relative to control
[6] = molecular target: T1, Nuclear receptor ROR-gamma (Homo sapiens, UniProt P51449); assay: Binding affinity to recombinant human RORgamma LBD (237 to 497 residues) expressed in Escherichia coli BL21 (DE3) GOLD by 1,8-ANS dye-based thermofluor assay
T1 sequence (P51449 whole entry): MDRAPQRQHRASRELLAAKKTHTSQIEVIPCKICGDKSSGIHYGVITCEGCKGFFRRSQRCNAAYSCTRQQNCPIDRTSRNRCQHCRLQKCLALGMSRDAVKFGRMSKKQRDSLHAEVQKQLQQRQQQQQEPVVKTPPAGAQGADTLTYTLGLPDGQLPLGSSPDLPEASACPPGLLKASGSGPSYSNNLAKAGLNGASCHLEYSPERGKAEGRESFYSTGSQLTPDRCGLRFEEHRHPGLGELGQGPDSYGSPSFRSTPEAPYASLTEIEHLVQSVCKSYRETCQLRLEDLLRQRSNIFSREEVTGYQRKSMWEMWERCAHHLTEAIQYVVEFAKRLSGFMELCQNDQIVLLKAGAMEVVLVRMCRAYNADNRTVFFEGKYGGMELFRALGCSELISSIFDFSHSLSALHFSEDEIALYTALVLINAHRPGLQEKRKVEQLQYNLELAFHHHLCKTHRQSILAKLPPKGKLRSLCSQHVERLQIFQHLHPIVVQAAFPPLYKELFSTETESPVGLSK

[7] = molecular target: Mitogen-activated protein kinase 13 (Homo sapiens) (UniProt O15264); assay: Inhibition of recombinant full length His-tagged human p38delta expressed in baculovirus expression system at 10 uM in presence of ATP relative to control
[8] = molecular target: Proto-oncogene tyrosine-protein kinase Src (Homo sapiens) (UniProt P12931); assay: Inhibition of recombinant full length C-terminal His-tagged human Src cytoplasmic domain expressed in baculovirus expression system at 10 uM in presence of ATP relative to control
[9] = molecular target: Casein kinase II subunit alpha (Homo sapiens) (UniProt P68400); assay: Inhibition of CK2alpha1 (unknown origin) at 10 uM in presence of ATP relative to control
[10] = molecular target: Serine/threonine-protein kinase PAK 3 (Homo sapiens) (UniProt O75914); assay: Inhibition of recombinant full length His-tagged human PAK3 expressed in baculovirus expression system at 10 uM in presence of ATP relative to control
[11] = molecular target: 5-hydroxytryptamine receptor 2A (Homo sapiens, UniProt P28223); assay: Displacement of [3H]ketanserin human recombinant 5-HT2A receptor after 60 mins by scintillation counting analysis
[12] = molecular target: C-C chemokine receptor type 1 (Homo sapiens) (UniProt P32246); assay: Displacement of [125I]MIP-1alpha from human recombinant CCR1 receptor at 1 uM after 120 mins by scintillation counting analysis relative to control
[13] = molecular target: C-X-C chemokine receptor type 2 (Homo sapiens) (UniProt P25025); assay: Displacement of [125I]IL-8 from human recombinant CXCR2 receptor at 10 uM after 60 mins by scintillation counting analysis relative to control
[14] = molecular target: Dual specificity protein kinase CLK2 (Homo sapiens) (UniProt P49760); assay: Inhibition of recombinant GST-tagged human CLK2 catalytic domain (137 to 498 residues) expressed in baculovirus expression system at 10 uM in presence of ATP relative to control
D(1A) dopamine receptor = D(1A) dopamine receptor (Homo sapiens, UniProt P21728); assay: Displacement of [3H]-SCH 23390 from human recombinant dopamine D1 receptor at 10 uM after 60 mins by scintillation counting analysis relative to control
[15] = molecular target: Vasoactive intestinal polypeptide receptor 1 (Homo sapiens) (UniProt P32241); assay: Displacement of [125I]VIP from human recombinant VPAC1 receptor at 1 uM after 60 mins by scintillation counting analysis relative to control
[16] = Oral bioavailability in Sprague-Dawley rat at 5 mg/kg; assay type: ADME, organism-based; conditions: in vivo
[17] = molecular target: 5-hydroxytryptamine receptor 5A (Homo sapiens, UniProt P47898); assay: Displacement of [3H]LSD from human recombinant 5-HT5a receptor at 1 uM after 120 mins by scintillation counting analysis relative to control
[18] = molecular target: Serine/threonine-protein kinase PAK 4 (Homo sapiens) (UniProt O96013); assay: Inhibition of recombinant GST-tagged human PAK4 catalytic domain expressed in baculovirus expression system at 10 uM in presence of ATP relative to control
[19] = Half life in human microsomes; assay type: ADME, Microsome
Histamine H1 receptor = Histamine H1 receptor (Homo sapiens, UniProt P35367); assay: Displacement of [3H]pyrilamine from human recombinant histamine H1 receptor after 60 mins by scintillation counting analysis
[20] = molecular target: RAC-alpha serine/threonine-protein kinase (Homo sapiens) (UniProt P31749); assay: Inhibition of recombinant full length His-tagged human AKT1 expressed in baculovirus expression system at 10 uM in presence of ATP relative to control
Adenosine receptor A2a = Adenosine receptor A2a (Homo sapiens, UniProt P29274); assay: Displacement of [3H]-CGS 21680 from human recombinant adenosine A2A receptor at 10 uM after 120 mins by scintillation counting analysis relative to control
[21] = molecular target: Rho-associated protein kinase 1 (Homo sapiens) (UniProt Q13464); assay: Inhibition of recombinant N-terminal GST-tagged human ROCK1 catalytic domain (1 to 535 residues) expressed in baculovirus expression system at 10 uM in presence of ATP relative to control
[22] = tested on: Casein kinase II subunit alpha' (CSNK2A2); assay: Inhibition of CK2alpha2 (unknown origin) at 10 uM in presence of ATP relative to control; conditions: Homo sapiens
[23] = Displacement of [3H]batrachotoxinin from rat brain voltage gated sodium ion channel site 2 after 60 mins by scintillation counting analysis

Histamine H1 receptor, sequence (P35367 whole entry): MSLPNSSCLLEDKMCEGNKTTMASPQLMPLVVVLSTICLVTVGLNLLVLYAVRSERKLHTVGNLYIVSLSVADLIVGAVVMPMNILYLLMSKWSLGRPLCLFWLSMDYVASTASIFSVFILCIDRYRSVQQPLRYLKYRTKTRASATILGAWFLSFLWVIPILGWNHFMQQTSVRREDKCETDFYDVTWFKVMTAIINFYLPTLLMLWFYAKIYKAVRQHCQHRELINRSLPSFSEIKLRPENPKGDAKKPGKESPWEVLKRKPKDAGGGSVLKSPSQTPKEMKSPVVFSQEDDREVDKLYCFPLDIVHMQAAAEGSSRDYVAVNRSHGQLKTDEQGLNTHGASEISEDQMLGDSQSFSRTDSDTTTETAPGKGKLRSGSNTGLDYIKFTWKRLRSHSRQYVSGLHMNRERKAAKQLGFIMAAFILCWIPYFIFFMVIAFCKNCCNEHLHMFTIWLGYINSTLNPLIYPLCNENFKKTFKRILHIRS
Rho-associated protein kinase 1 (Homo sapiens), sequence (Q13464 2-1354 limits assumed): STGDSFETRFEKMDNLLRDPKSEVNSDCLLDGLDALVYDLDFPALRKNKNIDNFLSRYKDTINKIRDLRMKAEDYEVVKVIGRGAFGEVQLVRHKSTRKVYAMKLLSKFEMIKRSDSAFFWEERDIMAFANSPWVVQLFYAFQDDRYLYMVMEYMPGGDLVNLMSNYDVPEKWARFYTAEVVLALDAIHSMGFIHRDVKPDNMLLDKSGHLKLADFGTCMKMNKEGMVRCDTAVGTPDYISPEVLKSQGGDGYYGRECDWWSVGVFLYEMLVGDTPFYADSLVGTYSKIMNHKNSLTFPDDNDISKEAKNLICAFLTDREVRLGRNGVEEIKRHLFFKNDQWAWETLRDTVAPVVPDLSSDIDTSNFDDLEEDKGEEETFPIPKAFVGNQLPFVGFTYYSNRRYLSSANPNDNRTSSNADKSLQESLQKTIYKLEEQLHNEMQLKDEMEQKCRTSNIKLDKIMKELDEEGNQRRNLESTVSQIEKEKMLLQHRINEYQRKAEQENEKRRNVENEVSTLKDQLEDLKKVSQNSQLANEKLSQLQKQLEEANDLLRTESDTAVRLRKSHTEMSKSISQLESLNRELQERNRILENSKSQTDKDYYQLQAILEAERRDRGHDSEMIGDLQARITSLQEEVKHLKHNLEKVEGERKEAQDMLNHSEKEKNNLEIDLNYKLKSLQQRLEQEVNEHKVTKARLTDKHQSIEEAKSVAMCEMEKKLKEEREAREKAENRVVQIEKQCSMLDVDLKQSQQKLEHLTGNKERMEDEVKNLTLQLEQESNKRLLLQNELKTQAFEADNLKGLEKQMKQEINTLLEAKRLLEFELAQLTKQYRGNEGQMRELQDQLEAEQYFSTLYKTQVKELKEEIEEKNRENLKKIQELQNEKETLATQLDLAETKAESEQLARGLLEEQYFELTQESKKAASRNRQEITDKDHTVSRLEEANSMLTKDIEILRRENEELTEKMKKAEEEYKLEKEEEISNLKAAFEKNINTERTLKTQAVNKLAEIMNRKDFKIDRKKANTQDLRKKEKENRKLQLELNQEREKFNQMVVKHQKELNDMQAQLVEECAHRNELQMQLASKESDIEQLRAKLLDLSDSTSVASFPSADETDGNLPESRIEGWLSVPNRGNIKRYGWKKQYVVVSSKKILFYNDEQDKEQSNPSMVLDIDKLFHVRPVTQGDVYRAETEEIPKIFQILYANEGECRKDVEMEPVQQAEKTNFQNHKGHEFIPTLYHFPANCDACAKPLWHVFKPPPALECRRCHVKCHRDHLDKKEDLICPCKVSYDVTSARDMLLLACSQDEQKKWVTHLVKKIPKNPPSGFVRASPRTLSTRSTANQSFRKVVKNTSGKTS
Dual specificity protein kinase CLK2 (Homo sapiens), sequence (P49760 whole entry, looked up, the tested form may be a part): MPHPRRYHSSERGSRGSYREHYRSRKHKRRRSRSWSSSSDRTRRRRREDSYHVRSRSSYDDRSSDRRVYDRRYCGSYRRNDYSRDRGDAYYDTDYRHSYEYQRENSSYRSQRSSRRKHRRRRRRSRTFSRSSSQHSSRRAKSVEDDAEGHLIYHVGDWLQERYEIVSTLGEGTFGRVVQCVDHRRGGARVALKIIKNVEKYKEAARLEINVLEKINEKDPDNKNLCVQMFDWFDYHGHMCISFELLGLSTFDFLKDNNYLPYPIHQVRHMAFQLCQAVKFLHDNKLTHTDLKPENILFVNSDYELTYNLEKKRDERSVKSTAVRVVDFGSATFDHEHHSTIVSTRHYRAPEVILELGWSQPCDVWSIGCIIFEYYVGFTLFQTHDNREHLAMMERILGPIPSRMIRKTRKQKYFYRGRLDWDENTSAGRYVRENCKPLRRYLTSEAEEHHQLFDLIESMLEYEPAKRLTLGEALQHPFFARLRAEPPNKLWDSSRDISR
Mitogen-activated protein kinase 13 (Homo sapiens), sequence (O15264 whole entry, the tested form may be a part): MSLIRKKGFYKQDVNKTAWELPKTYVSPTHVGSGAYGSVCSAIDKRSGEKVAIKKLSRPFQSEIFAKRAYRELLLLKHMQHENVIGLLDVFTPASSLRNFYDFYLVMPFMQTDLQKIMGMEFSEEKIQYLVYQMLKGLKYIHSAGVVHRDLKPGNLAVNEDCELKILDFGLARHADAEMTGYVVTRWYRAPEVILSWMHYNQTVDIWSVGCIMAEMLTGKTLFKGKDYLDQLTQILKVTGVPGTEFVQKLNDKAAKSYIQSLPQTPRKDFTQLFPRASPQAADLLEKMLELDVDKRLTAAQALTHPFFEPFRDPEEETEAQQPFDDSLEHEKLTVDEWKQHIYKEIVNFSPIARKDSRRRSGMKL
Adenosine receptor A2a, sequence (P29274 whole entry, the tested form may be a part): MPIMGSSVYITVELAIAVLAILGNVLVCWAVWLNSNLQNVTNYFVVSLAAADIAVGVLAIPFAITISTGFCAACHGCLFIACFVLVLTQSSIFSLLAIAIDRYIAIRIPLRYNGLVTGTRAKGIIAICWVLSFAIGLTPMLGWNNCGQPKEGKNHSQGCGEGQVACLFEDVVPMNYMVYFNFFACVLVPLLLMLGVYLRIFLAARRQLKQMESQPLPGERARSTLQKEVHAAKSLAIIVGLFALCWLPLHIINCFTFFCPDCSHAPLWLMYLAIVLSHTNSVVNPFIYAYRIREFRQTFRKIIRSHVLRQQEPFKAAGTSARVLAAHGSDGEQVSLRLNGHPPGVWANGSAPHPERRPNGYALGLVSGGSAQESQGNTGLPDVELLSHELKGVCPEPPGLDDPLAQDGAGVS
5-hydroxytryptamine receptor 2A, sequence (P28223 whole entry): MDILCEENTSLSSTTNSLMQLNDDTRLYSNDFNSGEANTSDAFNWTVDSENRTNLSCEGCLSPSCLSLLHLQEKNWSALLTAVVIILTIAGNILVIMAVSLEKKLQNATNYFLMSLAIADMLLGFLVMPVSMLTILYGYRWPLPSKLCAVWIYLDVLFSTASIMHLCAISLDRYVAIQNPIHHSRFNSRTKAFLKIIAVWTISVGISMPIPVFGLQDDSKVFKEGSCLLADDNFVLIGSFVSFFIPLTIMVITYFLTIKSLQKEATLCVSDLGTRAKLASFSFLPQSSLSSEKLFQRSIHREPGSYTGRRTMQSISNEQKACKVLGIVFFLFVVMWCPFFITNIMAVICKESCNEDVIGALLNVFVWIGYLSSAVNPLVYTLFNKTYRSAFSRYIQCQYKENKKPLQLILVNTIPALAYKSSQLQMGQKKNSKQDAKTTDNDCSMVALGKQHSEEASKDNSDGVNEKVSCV
RAC-alpha serine/threonine-protein kinase (Homo sapiens), sequence (P31749 whole entry): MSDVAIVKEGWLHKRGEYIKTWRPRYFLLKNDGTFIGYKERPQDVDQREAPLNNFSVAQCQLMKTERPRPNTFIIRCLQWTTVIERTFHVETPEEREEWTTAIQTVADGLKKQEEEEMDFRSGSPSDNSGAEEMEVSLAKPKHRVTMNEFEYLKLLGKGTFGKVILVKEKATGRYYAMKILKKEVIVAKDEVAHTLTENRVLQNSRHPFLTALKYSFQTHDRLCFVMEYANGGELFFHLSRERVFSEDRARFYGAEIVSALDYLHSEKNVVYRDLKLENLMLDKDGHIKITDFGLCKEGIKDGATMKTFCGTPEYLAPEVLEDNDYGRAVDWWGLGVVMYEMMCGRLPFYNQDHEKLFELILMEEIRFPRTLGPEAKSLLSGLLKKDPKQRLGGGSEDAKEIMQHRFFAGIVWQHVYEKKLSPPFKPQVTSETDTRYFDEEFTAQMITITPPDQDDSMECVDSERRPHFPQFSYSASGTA
Adenosine receptor A1 (Homo sapiens), sequence (P30542 whole entry): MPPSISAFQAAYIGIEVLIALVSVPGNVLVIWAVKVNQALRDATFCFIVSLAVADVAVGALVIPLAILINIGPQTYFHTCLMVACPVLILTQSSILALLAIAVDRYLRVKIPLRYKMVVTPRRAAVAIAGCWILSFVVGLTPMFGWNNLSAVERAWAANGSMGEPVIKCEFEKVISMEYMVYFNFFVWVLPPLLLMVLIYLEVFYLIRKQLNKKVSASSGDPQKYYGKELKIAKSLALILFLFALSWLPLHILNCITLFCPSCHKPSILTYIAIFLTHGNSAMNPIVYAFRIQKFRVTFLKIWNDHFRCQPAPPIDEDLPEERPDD
Vasoactive intestinal polypeptide receptor 1 (Homo sapiens), sequence (P32241 whole entry): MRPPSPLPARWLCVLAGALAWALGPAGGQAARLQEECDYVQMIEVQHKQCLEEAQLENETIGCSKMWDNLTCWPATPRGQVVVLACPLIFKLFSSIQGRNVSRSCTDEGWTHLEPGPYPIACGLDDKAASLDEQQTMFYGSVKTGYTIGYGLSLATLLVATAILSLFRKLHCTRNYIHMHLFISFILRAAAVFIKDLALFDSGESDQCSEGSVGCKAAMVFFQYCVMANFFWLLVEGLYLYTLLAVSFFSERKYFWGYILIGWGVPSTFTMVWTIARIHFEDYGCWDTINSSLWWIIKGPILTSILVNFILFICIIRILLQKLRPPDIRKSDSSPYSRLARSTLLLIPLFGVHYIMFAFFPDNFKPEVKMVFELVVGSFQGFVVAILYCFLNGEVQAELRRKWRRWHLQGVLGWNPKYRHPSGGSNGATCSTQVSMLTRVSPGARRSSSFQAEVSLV

CC(C)(C)NS(=O)(=O)c1ccc(-c2sc(C(=O)N[C@H]3C[C@H](C(=O)O)C3)nc2CC2CCCCC2)c2ccccc12
inhibition [1]: -5%
inhibition [2]: < 10%
inhibition [3]: < 10%
inhibition (Nociceptin receptor): < 10%
solubility thermodynamic [4]: > 400 µM
inhibition [5]: < 10%
Kd [6]: 0.12 nM
inhibition [7]: -4%
inhibition [8]: -4%
inhibition [9]: 0%
inhibition [10]: 5%
IC50 [11]: 0.64 nM
inhibition [12]: < 10%
inhibition [13]: 24%
inhibition [14]: -1%
inhibition (D(1A) dopamine receptor): 12%
inhibition [15]: < 10%
bioavailability [16]: 20%
inhibition [17]: < 10%
inhibition [18]: 7%
half-life [19]: 1.25 h
IC50 (Histamine H1 receptor): 1.7 nM
inhibition [20]: -5%
inhibition (Adenosine receptor A2a): 20%
inhibition [21]: -10%
inhibition [22]: 2%
IC50 [23]: 6420 nM
